Patent US10730863B2, “Bridged bicyclic compounds as farnesoid X receptor modulators” (BRISTOL-MYERS SQUIBB COMPANY, priority 2017, dated 2020)

target: FXR (Homo sapiens (Human), UniProt Q96RI1); test: transient human FXR/Gal4-luciferase reporter assay; assay type: cell-based; conditions: Gal4-hFXR LBD fusion in HEK293 reporter cells; relative to 8 μM GW-4064
Experimental: The exemplified compounds of the present invention were tested in the transient human FXR/Gal4-luciferase reporter assay, and assay results were described in the EXAMPLES section hereinbefore.
A Gal4-hFXR fusion construct reporter system was used as the primary assay to characterize compound activity. A construct including 5 copies of the Gal4 promoter response element upstream of a firefly luciferase reporter cDNA was stably expressed in HEK293 cells. This reporter cell line was maintained in Dulbecco's Modified Eagle's medium (DMEM; Gibco) supplemented with 1% penicillin-streptomycin (P/S) solution, 500 μg/ml Zeocin and 10% charcoal/dextran-treated fetal bovine serum (cs-FBS) at 37° C. in a humidified 5% CO2 atmosphere. Another plasmid was constructed in which the human cytomegalovirus promoter in the pcDNA3.1 vector directs the expression of the cDNA encoding a fusion protein comprised of the DNA binding domain from the Gal4 transcription factor fused to the ligand binding domain from human FXR.
The day prior to transfection, the reporter cells in culture are detached from the plate with trypsin and plated into a T75 flask at a sufficient density to achieve approximately 90% confluence the next morning. The transfection reagents are prepared by separately diluting 25 μg of the pcDNA3.1-Gal4-FXR plasmid into 1.87 mL of Opti-MEM (Thermo-Fisher), and 40 μL of Lipofectamine 2000 (Thermo-Fisher) into 1.87 mL of Opti-MEM, and then adding the diluted DNA solution into the diluted Lipofectamine 2000 solution and incubating at room temperature for 15-20 minutes. The mixture is further diluted with 10 mL of a solution comprised of DMEM, 10% cs-FBS, and 1% P/S immediately prior to transferring to the cells. The maintenance culture media is aspirated from the cells and the final transfection mixture is added before the cells are incubated overnight at 37° C. in a humidified 5% CO2 atmosphere. This protocol can be scaled up, and the transiently transfected cells can be cryopreserved in an assay-ready format.
For compound testing, 100 nL of the compounds (serial dilutions in DMSO) are dispensed with an Echo acoustic dispenser (Labcyte) into the wells of a Corning/Costar clear bottom 384-well white plate. The transfected cells are harvested, counted, and diluted such that 10-25,000 cells in 25 μL are plated into each well of the 384-well compound assay plate. The compound-treated cells are incubated overnight at 37° C. in a humidified 5% CO2 atmosphere. The next morning 25 μL of Steady-Glo (Promega) are added to each well of the plate, the mixture is incubated for 15 min. with shaking, and luminescence is measured on an Envision (Perkin Elmer) plate reader. Background counts from cells treated with DMSO alone are subtracted from all raw counts, and the corrected values are converted to a percentage of the control response attained with 8 μM GW-4064.

Sequence of FXR (Q96RI1 262-486): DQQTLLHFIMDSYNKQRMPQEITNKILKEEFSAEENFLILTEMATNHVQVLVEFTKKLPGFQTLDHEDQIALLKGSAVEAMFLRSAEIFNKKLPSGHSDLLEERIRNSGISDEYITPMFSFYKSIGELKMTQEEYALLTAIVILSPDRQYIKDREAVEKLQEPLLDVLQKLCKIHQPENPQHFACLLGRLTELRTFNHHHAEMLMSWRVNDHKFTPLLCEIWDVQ

Question: With `O=C(O)c1cc2ccc(C#CC34CCC(OCc5c(-c6c(Cl)cncc6Cl)noc5C5CC5)(CC3)CC4)cc2c(Nc2ccccc2)n1` [Example 550] as the compound, how does the EC50 read?
Answer: 186 nM

Question: `O=C(O)c1cc2ccc(/C=C/C34CCC(OCc5c(-c6c(Cl)cncc6Cl)noc5C5CC5)(CC3)CC4)cc2c(OC2CC2)n1` [Example 614] was tested. Which EC50 did it give?
Answer: 51 nM

Question: With `O=C(O)c1cc2ccc(/C=C/C34CCC(OCc5c(-c6c(Cl)cncc6Cl)noc5C5CC5)(CC3)CC4)cc2c(N2CC(F)C2)n1` [Example 611] as the compound, how does the EC50 read?
Answer: 22 nM

Question: Which EC50 does the source give for `O=C(O)COCc1ccc(/C=C/C23CCC(OCc4c(-c5c(Cl)cncc5Cl)noc4C4CC4)(CC2)CC3)cc1` [Example 622] here?
Answer: 176 nM

Question: `O=C(O)c1cc2ccc(/C=C/C34CCC(OCc5c(-c6c(Cl)cncc6Cl)noc5C5CC5)(CC3)CC4)cc2c(OC2CCCC2)n1` [Example 615] was tested. Which EC50 did it give?
Answer: 52 nM

Question: `Cc1c(OCC23CCC(OCc4c(-c5c(Cl)cncc5Cl)noc4C4CC4)(CC2)CC3)nn(C)c1C(=O)O` [Example 534] was tested. Which EC50 did it give?
Answer: 248 nM

Question: Which EC50 does the source give for `O=C(O)c1cc2ccc(/C=C/C34CCC(OCc5c(-c6c(Cl)cncc6Cl)noc5C5CC5)(CC3)CC4)cc2c(N2CC(O)C2)n1` [Example 610] here?
Answer: 77 nM

Question: For `Cc1c(OCC23CCC(OCc4c(-c5c(Cl)cncc5Cl)noc4C4CC4)(CC2)CC3)nn(CC2COC2)c1C(=O)O` [Example 533], which EC50 is on record?
Answer: 1910 nM

Question: With `O=C(O)c1cc(C(F)(F)F)cc(COCC23CCC(OCc4c(-c5c(Cl)cncc5Cl)noc4C4CC4)(CC2)CC3)n1` [Example 527] as the compound, how does the EC50 read?
Answer: 86 nM

Question: Which EC50 does the source give for `O=C(O)c1cn2c(n1)CN(CC13CCC(OCc4c(-c5c(Cl)cccc5Cl)noc4C4CC4)(CC1)CC3)CC2` [Example 578] here?
Answer: 903 nM

Question: For `O=C(O)c1cc2ccc(C#CC34CCC(OCc5c(-c6c(Cl)cncc6Cl)noc5C5CC5)(CC3)CC4)cc2c(N2CCNCC2)n1` [Example 573], which EC50 is on record?
Answer: 1630 nM

Question: How did the EC50 turn out when `COC1CN(c2nc(C(=O)O)cc3ccc(/C=C/C45CCC(OCc6c(-c7c(Cl)cncc7Cl)noc6C6CC6)(CC4)CC5)cc23)C1` [Example 609] was run?
Answer: 67 nM

Question: How did the EC50 turn out when `Cn1c(C(=O)O)cc2c(/C=C/C34CCC(OCc5c(-c6c(Cl)cncc6Cl)noc5C5CC5)(CC3)CC4)cccc21` [Example 597] was run?
Answer: 208 nM

Question: Which EC50 does the source give for `O=C(O)c1cc2ccc(C#CC34CCC(OCc5c(-c6c(Cl)cncc6Cl)noc5C5CC5)(CC3)CC4)cc2c(N2CCC2)n1` [Example 559] here?
Answer: 20 nM

Question: With `O=C(O)COc1ccc(/C=C/C23CCC(OCc4c(-c5c(Cl)cncc5Cl)noc4C4CC4)(CC2)CC3)cn1` [Example 616] as the compound, how does the EC50 read?
Answer: 3040 nM

Question: Which EC50 does the source give for `O=C(O)c1ccc(/C=C/C23CCC(OCc4c(-c5c(Cl)cncc5Cl)noc4C4CC4)(CC2)CC3)cc1` [Example 625] here?
Answer: 350 nM

Question: For `O=C(O)c1cc2ccc(/C=C/C34CCC(OCc5c(-c6c(Cl)cncc6Cl)noc5C5CC5)(CC3)CC4)cc2c(N2CCOCC2)n1` [Example 603], which EC50 is on record?
Answer: 18 nM

Question: For `O=C(O)c1cc2ccc(C#CC34CCC(OCc5c(-c6c(Cl)cncc6Cl)noc5C5CC5)(CC3)CC4)cc2c(OCCN2CCCC2)n1` [Example 574], which EC50 is on record?
Answer: 1370 nM

Question: `Cn1nc(C(=O)O)cc1OCC12CCC(OCc3c(-c4c(Cl)cncc4Cl)noc3C3CC3)(CC1)CC2` [Example 526] was tested. Which EC50 did it give?
Answer: 296 nM

Question: For `O=C(O)c1cc2ccc(C#CC34CCC(OCc5c(-c6c(Cl)cncc6Cl)noc5C5CC5)(CC3)CC4)cc2c(NC2CC2)n1` [Example 551], which EC50 is on record?
Answer: 406 nM

Question: With `O=C(O)COc1cc(C#CC23CCC(OCc4c(-c5c(Cl)cncc5Cl)noc4C4CC4)(CC2)CC3)ccn1` [Example 561] as the compound, how does the EC50 read?
Answer: 779 nM

Question: With `O=C(O)COCc1ccc(C#CC23CCC(OCc4c(-c5c(Cl)cncc5Cl)noc4C4CC4)(CC2)CC3)nc1` [Example 569] as the compound, how does the EC50 read?
Answer: 1360 nM

Question: For `O=C(O)c1cncc(/C=C/C23CCC(OCc4c(-c5c(Cl)cncc5Cl)noc4C4CC4)(CC2)CC3)c1` [Example 627], which EC50 is on record?
Answer: 1150 nM

Question: How did the EC50 turn out when `O=C(O)c1cncc(NCC23CCC(OCc4c(-c5c(Cl)cccc5Cl)noc4C4CC4)(CC2)CC3)c1` [Example 580] was run?
Answer: 543 nM

Question: `CN1CCN(c2nc(C(=O)O)cc3cc(C#CC45CCC(OCc6c(-c7c(Cl)cncc7Cl)noc6C6CC6)(CC4)CC5)ccc23)CC1` [Example 570] was tested. Which EC50 did it give?
Answer: 201 nM

Question: Which EC50 does the source give for `O=C(O)c1cc2ccc(/C=C/C34CCC(OCc5c(-c6c(Cl)cncc6Cl)noc5C5CC5)(CC3)CC4)cc2c(N2CC(CO)C2)n1` [Example 612] here?
Answer: 108 nM

Question: How did the EC50 turn out when `CC(C)Oc1cc(C(=O)O)nc2ccc(CCC34CCC(OCc5c(-c6c(Cl)cncc6Cl)noc5C5CC5)(CC3)CC4)cc12` [Example 586] was run?
Answer: 30 nM

Question: How did the EC50 turn out when `O=C(O)COc1ccc(/C=C/C23CCC(OCc4c(-c5c(Cl)cncc5Cl)noc4C4CC4)(CC2)CC3)c(F)c1` [Example 608] was run?
Answer: 1030 nM

Question: With `CCn1nc(C(=O)O)cc1OCC12CCC(OCc3c(-c4c(Cl)cncc4Cl)noc3C3CC3)(CC1)CC2` [Example 537] as the compound, how does the EC50 read?
Answer: 79 nM

Question: For `CCc1cc(C(=O)O)c2ncc(C#CC34CCC(OCc5c(-c6c(Cl)cncc6Cl)noc5C5CC5)(CC3)CC4)n2c1` [Example 546], which EC50 is on record?
Answer: 7 nM

Question: Which EC50 does the source give for `Cc1c(OCC23CCC(OCc4c(-c5c(Cl)cncc5Cl)noc4C4CC4)(CC2)CC3)nn(C(C)C)c1C(=O)O` [Example 531] here?
Answer: 138 nM

Question: Which EC50 does the source give for `O=C(O)c1cc2cc(C#CC34CCC(OCc5c(-c6c(Cl)cncc6Cl)noc5C5CC5)(CC3)CC4)ccc2c(N2CCOCC2)n1` [Example 555] here?
Answer: 87 nM

Question: With `COc1ncc(-c2noc(C34CCC(OCc5c(-c6c(Cl)cncc6Cl)noc5C5CC5)(CC3)CC4)n2)cc1C(=O)O` [Example 585] as the compound, how does the EC50 read?
Answer: 114 nM

Question: `O=C(O)c1cc(N2CCOCC2)c2nc(C34CCC(OCc5c(-c6c(Cl)cncc6Cl)noc5C5CC5)(CC3)CC4)ccc2c1` [Example 543] was tested. Which EC50 did it give?
Answer: 469 nM

Question: With `COCCCOc1nc(C(=O)O)cc2ccc(/C=C/C34CCC(OCc5c(-c6c(Cl)cncc6Cl)noc5C5CC5)(CC3)CC4)cc12` [Example 601] as the compound, how does the EC50 read?
Answer: 18 nM

Question: `O=C(O)c1ccn2cc(OCC34CCC(OCc5c(-c6c(Cl)cncc6Cl)noc5C5CC5)(CC3)CC4)nc2c1` [Example 538] was tested. Which EC50 did it give?
Answer: 90 nM

Question: For `O=C(O)c1cc(/C=C/C23CCC(OCc4c(-c5c(Cl)cncc5Cl)noc4C4CC4)(CC2)CC3)ccn1` [Example 626], which EC50 is on record?
Answer: 879 nM

Question: For `O=C(O)Cc1ccc(/C=C/C23CCC(OCc4c(-c5c(Cl)cncc5Cl)noc4C4CC4)(CC2)CC3)c(F)c1` [Example 602], which EC50 is on record?
Answer: 81 nM

Question: How did the EC50 turn out when `Cc1c(OCC23CCC(OCc4c(-c5c(Cl)cncc5Cl)noc4C4CC4)(CC2)CC3)nn(CC2CC2)c1C(=O)O` [Example 532] was run?
Answer: 148 nM

Question: Which EC50 does the source give for `CN(C)C1CN(c2nc(C(=O)O)cc3ccc(C#CC45CCC(OCc6c(-c7c(Cl)cncc7Cl)noc6C6CC6)(CC4)CC5)cc23)C1` [Example 572] here?
Answer: 61 nM

Question: How did the EC50 turn out when `O=C(O)c1cc(OC2CCCC2)c2cc(/C=C/C34CCC(OCc5c(-c6c(Cl)cncc6Cl)noc5C5CC5)(CC3)CC4)ccc2n1` [Example 589] was run?
Answer: 17 nM

Question: With `O=C(O)Cc1ccc(/C=C/C23CCC(OCc4c(-c5c(Cl)cncc5Cl)noc4C4CC4)(CC2)CC3)cc1F` [Example 594] as the compound, how does the EC50 read?
Answer: 153 nM

Question: With `O=C(O)COCc1ccc(C#CC23CCC(OCc4c(-c5c(Cl)cncc5Cl)noc4C4CC4)(CC2)CC3)cn1` [Example 571] as the compound, how does the EC50 read?
Answer: 272 nM

Question: Which EC50 does the source give for `O=C(O)Cc1ccc(/C=C/C23CCC(OCc4c(-c5c(Cl)cncc5Cl)noc4C4CC4)(CC2)CC3)cn1` [Example 596] here?
Answer: 1350 nM

Question: How did the EC50 turn out when `Cn1c(C(=O)O)cc2ccc(/C=C/C34CCC(OCc5c(-c6c(Cl)cncc6Cl)noc5C5CC5)(CC3)CC4)cc21` [Example 595] was run?
Answer: 49 nM

Question: `O=C(O)c1cnc2cc(/C=C/C34CCC(OCc5c(-c6c(Cl)cncc6Cl)noc5C5CC5)(CC3)CC4)ccn12` [Example 592] was tested. Which EC50 did it give?
Answer: 194 nM

Question: Which EC50 does the source give for `O=C(O)Cc1cccc(/C=C/C23CCC(OCc4c(-c5c(Cl)cncc5Cl)noc4C4CC4)(CC2)CC3)c1` [Example 600] here?
Answer: 2040 nM

Question: `CCc1nc(C(=O)O)cc2ccc(OCC34CCC(OCc5c(-c6c(Cl)cncc6Cl)noc5C5CC5)(CC3)CC4)cc12` [Example 529] was tested. Which EC50 did it give?
Answer: 9 nM

Question: For `O=C(O)c1cc(OCC23CCC(OCc4c(-c5c(Cl)cncc5Cl)noc4C4CC4)(CC2)CC3)n(C2CC2)n1` [Example 541], which EC50 is on record?
Answer: 59 nM

Question: Which EC50 does the source give for `COc1ccc(/C=C/C23CCC(OCc4c(-c5c(Cl)cncc5Cl)noc4C4CC4)(CC2)CC3)cc1CCC(=O)O` [Example 605] here?
Answer: 432 nM

Question: How did the EC50 turn out when `CCn1nc(OCC23CCC(OCc4c(-c5c(Cl)cncc5Cl)noc4C4CC4)(CC2)CC3)c(C)c1C(=O)O` [Example 530] was run?
Answer: 219 nM

Question: `O=C(O)c1cc(OC2CCOC2)c2nc(C34CCC(OCc5c(-c6c(Cl)cncc6Cl)noc5C5CC5)(CC3)CC4)ccc2c1` (stereo not shown) [Example 560] was tested. Which EC50 did it give?
Answer: 286 nM
